Patent US5389621A, “Method of enhancing the anticoagulant effects of aspirin using salicylamide” (University of Medicine and Dentistry of New Jersey, priority 1994, dated 1995)
Entries after “also recorded” stand apart in the source; their conditions may differ.

System: platelet cyclooxygenase
Assay: Thromboxane B2 synthesis by arachidonic acid-stimulated platelet-rich plasma in vitro
Type: cell-based, male Sprague-Dawley rats
Conditions: for Effect on TX B2 formation / platelet cyclooxygenase: arachidonic acid-stimulated PRP
Text: Was done manually by the method of Brecher and Conkite (1953) using phase contrast microscopy (Balplan) with a 40×annulus, 40×phase objective, and 10×ocular (total of 400×), and a special platelet counting chamber (American Optical Corp., Buffalo, N.Y.) and dilution with 1% ammonium oxalate. The platelet-rich plasma (PRP) was adjusted by dilution with platelet-poor plasma (PPP) to give a final count of 1×10^9 platelets/ml.
Arachidonic acid (as the sodium salt, >99.0% pure) was obtained from Sigma Chemical Co. and a stock solution of 34.5 mM was prepared by dissolving in isotonic saline. 20 μl of the stock solution were added to 440 μl of PRP (400 μl of PRP and 20 or 40 μl of treatment solution ±20 μl of saline) to make a 23 fold dilution. The final concentration of AA in PRP was 1.5 mM.
EDTA solution was prepared by adding 2 gm disodium EDTA and 0.8 gm NaCl and were adjusted to pH 7.4 with NaOH and made up to a final volume of 100 ml in distilled water. ASA solution was prepared by dissolving 30 mg in 10 ml of isotonic saline to make a solution of 3 mg/ml.
950 μl of EDTA solution were added to 50 μl of ASA solution and the mixture was vortexed. 40 μl of the mixture were pipetted in the experiment test tubes to stop further prostaglandin production.
Platelet-rich plasma (PRP) was prepared from male Sprague-Dawley rats (300-325 gm). The blood was collected by heart puncture and added to 3.8% citrate solution, final volume 9:1, blood:citrate. The blood was centrifuged at 120×g (750 rpm) for 15 minutes at 4° C. to obtain PRP. The rest of the blood was spun at 1800×g (3000 rpm) for 10 minutes to get the PPP which was used later for dilution of the PRP to achieve the final desired platelet concentration of 1×10^9 platelets/ml. 400 μl of PRP, containing 4×10^8 platelets, were pipetted in polypropylene tubes and the following treatment groups were studied:
1--Baseline (-ve control) tubes: to measure the baseline production of Thromboxane B2 (TX B2) by platelets during the time of the experiment, 60 μl of saline were added and left for 10 minutes in a shaking water bath at 37° C.
2--Control (+ve control) tubes: 20 μl of arachidonic acid (AA) solution were added to achieve a final concentration of 1.5 mM and the tubes were incubated […].
3--ASA and/or SAM treatment tubes: 20 μl of ASA (final conc. 130 μg/ml), 20 μl of SAM solution (final conc. 40 μg/ml), 20 μl of ASA/SAM(L) solution (final conc. 130/40 μg/ml) or 20 μl of ASA/SAM(H) solution (final conc. 130/120 μg/ml) were added to PRP together with 20 μl of saline for 10 minutes, then 20 μl of AA solution were added for additional 10 minutes.
4--ASA/SA treatment: 20 μl of ASA/SA solution (final conc. 130/130 μg/ml) and 20 μl of saline were added to the tubes for 10 minutes before AA was added for further 10 minutes.
5--ASA/SA/SAM treatment: 20 μl of ASA/SA solution (130/130 μg/ml as final conc.) and 20 μl of […] in low (L) or high (H) concentrations (40 or 120 μg/ml, final conc.) were added simultaneously to PRP followed 10 minutes later by AA.
6--SAM/SA treatment: 20 μl of SAM solution (final conc. 40 μg/ml) and 20 μl of SA solution (final conc. 130 μg/ml) were added followed 10 minutes later by AA for additional 10 minutes.
Also, the effect of SAM when administered first to the platelets followed 10 minutes later by ASA was studied to know whether the effect of SAM is time dependent or not.
During the treatment, all the tubes were incubated at 37° C. in a shaking water bath. Ten minutes after the addition of AA, or saline (for the control tubes), the experiment was ended by addition of 40 μl of EDTA/ASA solution. The tubes were immediately centrifuged at 1800×g for 15 minutes at 4° C. to precipitate the platelets and 100 μl of the supernatant were obtained for estimation of their content of TX B2 using a specific radioimmunoassay (Amersham International) (vide infra).
Radioimmunoassay Procedure for Measurement of Thromboxane B2 and 6-keto PG F1alpha […]

SMILES | Effect of ASA addition to SAM/SA on TX B2 | Effect on TX B2 formation / platelet cyclooxygenase | Reversal of SA effect by SAM (SAM 40 μg/ml with ASA/SA) | Reversal of SA effect by SAM (SAM 120 μg/ml with ASA/SA) | Effect of SAM on ASA inhibition of TX B2 synthesis (SAM 40 or 120 μg/ml coadministered with ASA) | Effect on the aspirin-antagonistic effect of SA (platelet cyclooxygenase)
CC(=O)Oc1ccccc1C(=O)O [ASA, acetylsalicylic acid] | significant blocking of platelet cyclooxygenase | significant inhibition of TX B2 formation | – | – | – | –
NC(=O)c1ccccc1O [SAM, Salicylamide] | – | did not change TX B2 production compared to control | ~ 60% | completely preempted SA effect | did not influence ASA inhibition of TX B2 synthesis; also recorded: did not alter ASA-induced inhibition of platelet cyclooxygenase | dose-dependently quench the aspirin-antagonistic effect of SA
